From patent publication US20250114374A1, “BCL-2 INHIBITORS” (Newave Pharmaceutical Inc., priority 2021, published 2025)
Like-named read-outs stand apart in the source and are kept apart here.

Tested on: RS4; 11 with G101V mutation
Test: In vitro anti-proliferation assay (ATPlite luminescence) in BCL-2-dependent ALL cell line RS4;11 with G101V mutation
Assay type: cell-based
Conditions: read-out: RS411-G101V IC50
Outline: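 IC50 came from luminescent ATP quantification (ATPlite) following cell lysis. Compound dose ranges were applied for roughly 72 h to about 1×10^4 G101V-mutant RS4;11 cells per well, in 10% FBS medium.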

[1] = cellular anti-proliferative IC50, about 72 hours, medium with 10% FBS, ATPlite

Row | Compound | IC50 [1] [nM] | IC50 (Homo sapiens, RS4-11, 72 h) [nM]
1 | COc1cc(CN2CCN(C3CC4(CCN(c5ccc(C(=O)NS(=O)(=O)c6cc7c(c([N+](=O)[O-])c6)N[C@H](C6CCOCC6)CO7)c(N6c7cc8cc[nH]c8nc7O[C@H]7COCC[C@@H]76)c5)CC4)C3)[C@H](c3ccccc3OC(C)C)C2)cnc1N1CCOC[C@@H]1C [Example 169, 2-[(3R,8S)-2,5-dioxa-9,15,17-triazatetracyclo[8.7.0.0^{3,8}.0^{12,16}]heptadeca-1(10),11,13,16-tetraen-9-yl]-4-{2-[(2R)-2-(2-isopropoxyphenyl)-4-({5-methoxy-6-[(3S)-3-methylmorpholin-4-yl]pyridin-3-yl}methyl)piperazin-1-yl]-7-azaspiro[3.5]nonan-7-yl}-N-[(3R)-5-nitro-3-(oxan-4-yl)-3,4-dihydro-2H-1,4-benzoxazin-7-ylsulfonyl]benzamide] | 3.82 | 
2 | COc1nccc(CN2CCN(C3CC4(CCN(c5ccc(C(=O)NS(=O)(=O)c6ccc(NCC7CCC(C)(O)CC7)c([N+](=O)[O-])c6)c(N6c7cc8cc[nH]c8nc7O[C@H]7COCC[C@@H]76)c5)CC4)C3)[C@@H](c3ccccc3OC(C)C)C2)c1OC (stereo partly drawn) [Example 150, 4-(2-((S)-4-((2,3-dimethoxypyridin-4-yl)methyl)-2-(2-isopropoxyphenyl)piperazin-1-yl)-7-azaspiro[3.5]nonan-7-yl)-N-((4-((((1r,4r)-4-hydroxy-4-methylcyclohexyl)methyl)amino)-3-nitrophenyl)sulfonyl)-2-((5aS,9aR)-6,7,9,9a-tetrahydro-1H-pyrano[3,4-b]pyrrolo[3′,2′:5,6]pyrido[3,2-e][1,4]oxazin-5(5aH)-yl)benzamide] | 14.1 | 
3 | 4-(2-((R)-2-(2-isopropoxyphenyl)-4-((S)-tetrahydro-2H-pyran-3-yl)piperazin-1-yl)-7-azaspiro[3.5]nonan-7-yl)-N-(((R)-5-nitro-3-(tetrahydro-2H-pyran-4-yl)-3,4-dihydro-2H-benzo[b][1,4]oxazin-7-yl)sulfonyl)-2-((5aS,9aR)-6,7,9,9a-tetrahydro-1H-pyrano[3,4-b]pyrrolo[3′,2′:5,6]pyrido[3,2-e][1,4]oxazin-5(5aH)-yl)benzamide [Example 208] | 72.7 | 
4 | CC(C)Oc1ccccc1[C@H]1CN(Cc2ccc(N3CCOC[C@H]3C)cc2)CCN1C1CC2(CCN(c3ccc(C(=O)NS(=O)(=O)c4ccc(NCC5CCC(C)(O)CC5)c([N+](=O)[O-])c4)c(N4c5cc6cc[nH]c6nc5O[C@H]5COCC[C@@H]54)c3)CC2)C1 (stereo partly drawn) [Example 116, 2-[(3R,8S)-2,5-dioxa-9,15,17-triazatetracyclo[8.7.0.0^{3,8}.0^{12,16}]heptadeca-1(10),11,13,16-tetraen-9-yl]-4-{2-[(2S)-2-(2-isopropoxyphenyl)-4-({4-[(3R)-3-methylmorpholin-4-yl]phenyl}methyl)piperazin-1-yl]-7-azaspiro[3.5]nonan-7-yl}-N-[3-nitro-4-({[(1r,4r)-4-hydroxy-4-methylcyclohexyl]methyl}amino)benzenesulfonyl]benzamide] | 28.7 | 
5 | CC(C)c1ccccc1[C@@H]1CN(Cc2ccc(F)c(F)c2)CCN1C1CC2(CCN(c3ccc(C(=O)NS(=O)(=O)c4cc5c(c([N+](=O)[O-])c4)N[C@H](C4CCOCC4)CO5)c(N4c5cc6cc[nH]c6nc5O[C@H]5COCC[C@@H]54)c3)CC2)C1 [Example 180, 4-{2-[(2R)-4-[(3,4-difluorophenyl)methyl]-2-(2-isopropylphenyl)piperazin-1-yl]-7-azaspiro[3.5]nonan-7-yl}-2-[(3R,8S)-2,5-dioxa-9,15,17-triazatetracyclo[8.7.0.0^{3,8}.0^{12,16}]heptadeca-1(10),11,13,16-tetraen-9-yl]-N-[(3R)-5-nitro-3-(oxan-4-yl)-3,4-dihydro-2H-1,4-benzoxazin-7-ylsulfonyl]benzamide] | 7.5 | 
6 | Cc1ccccc1[C@@H]1CN([C@H]2CCCOC2)CCN1C1CC2(CCN(c3ccc(C(=O)NS(=O)(=O)c4cc5c(c([N+](=O)[O-])c4)N[C@H](C4CCOCC4)CO5)c(N4c5cc6cc[nH]c6nc5O[C@H]5COCC[C@@H]54)c3)CC2)C1 [Example 179, N—(((R)-5-nitro-3-(tetrahydro-2H-pyran-4-yl)-3,4-dihydro-2H-benzo[b][1,4]oxazin-7-yl)sulfonyl)-2-((5aS,9aR)-6,7,9,9a-tetrahydro-1H-pyrano[3,4-b]pyrrolo[3′,2′:5,6]pyrido[3,2-e][1,4]oxazin-5(5aH)-yl)-4-(2-((R)-4-((S)-tetrahydro-2H-pyran-3-yl)-2-(o-tolyl)piperazin-1-yl)-7-azaspiro[3.5]nonan-7-yl)benzamide] |  | 31.2
7 | Cc1ccccc1[C@@H]1CN([C@H]2CCOc3cc(F)c(F)cc32)CCN1C1CC2(CCN(c3ccc(C(=O)NS(=O)(=O)c4cc5c(c([N+](=O)[O-])c4)N[C@H](C4CCOCC4)CO5)c(N4c5cc6cc[nH]c6nc5O[C@H]5COCC[C@@H]54)c3)CC2)C1 [Example 170, 4-{2-[(2R)-4-[(4S)-6,7-difluoro-3,4-dihydro-2H-1-benzopyran-4-yl]-2-(2-methylphenyl)piperazin-1-yl]-7-azaspiro[3.5]nonan-7-yl}-2-[(3R,8S)-2,5-dioxa-9,15,17-triazatetracyclo[8.7.0.0^{3,8}.0^{12,16}]heptadeca-1(10),11,13,16-tetraen-9-yl]-N-[(3R)-5-nitro-3-(oxan-4-yl)-3,4-dihydro-2H-1,4-benzoxazin-7-ylsulfonyl]benzamide] | 205 | 
8 | CC(C)Oc1ccccc1[C@@H]1CN(C2CCC(C)(C)CC2)CCN1C1CC2(CCN(c3ccc(C(=O)NS(=O)(=O)c4cc5c(c([N+](=O)[O-])c4)N[C@H](C4CCOCC4)CO5)c(N4c5cc6cc[nH]c6nc5O[C@H]5COCC[C@@H]54)c3)CC2)C1 (stereo partly drawn) [Example 226, 4-{2-[(2R)-4-(4,4-dimethylcyclohexyl)-2-(2-isopropoxyphenyl)piperazin-1-yl]-7-azaspiro[3.5]nonan-7-yl}-2-[(3R,8S)-2,5-dioxa-9,15,17-triazatetracyclo[8.7.0.0^{3,8}.0^{12,16}]heptadeca-1(10),11,13,16-tetraen-9-yl]-N-[(3R)-5-nitro-3-(oxan-4-yl)-3,4-dihydro-2H-1,4-benzoxazin-7-ylsulfonyl]benzamide] | 62.6 | 
9 | CC(C)Oc1ccccc1[C@@H]1CN([C@@H]2COc3c(F)cc(F)cc3C2)CCN1C1CC2(CCN(c3ccc(C(=O)NS(=O)(=O)c4cc5c(c([N+](=O)[O-])c4)N[C@H](C4CCOCC4)CO5)c(N4c5cc6cc[nH]c6nc5O[C@H]5COCC[C@@H]54)c3)CC2)C1 [Example 220, 4-(2-((R)-4-((S)-6,8-difluorochroman-3-yl)-2-(2-isopropoxyphenyl)piperazin-1-yl)-7-azaspiro[3.5]nonan-7-yl)-N-(((R)-5-nitro-3-(tetrahydro-2H-pyran-4-yl)-3,4-dihydro-2H-benzo[b][1,4]oxazin-7-yl)sulfonyl)-2-((5aS,9aR)-6,7,9,9a-tetrahydro-1H-pyrano[3,4-b]pyrrolo[3′,2′:5,6]pyrido[3,2-e][1,4]oxazin-5(5aH)-yl)benzamide] |  | 261
10 | CC(C)Oc1ccccc1[C@@H]1CN(Cc2ccc(C3CC3)nc2)CCN1C1CC2(CCN(c3ccc(C(=O)NS(=O)(=O)c4cc5c(c([N+](=O)[O-])c4)N[C@H](C4CCOCC4)CO5)c(N4c5cc6cc[nH]c6nc5O[C@H]5COCC[C@@H]54)c3)CC2)C1 [Example 257, 4-(2-((R)-4-((6-cyclopropylpyridin-3-yl)methyl)-2-(2-isopropoxyphenyl)piperazin-1-yl)-7-azaspiro[3.5]nonan-7-yl)-N-(((R)-5-nitro-3-(tetrahydro-2H-pyran-4-yl)-3,4-dihydro-2H-benzo[b][1,4]oxazin-7-yl)sulfonyl)-2-((5aS,9aR)-6,7,9,9a-tetrahydro-1H-pyrano[3,4-b]pyrrolo[3′,2′:5,6]pyrido[3,2-e][1,4]oxazin-5(5aH)-yl)benzamide] |  | 3.9
11 | Cc1ccccc1[C@@H]1CN(Cc2ccc(F)c(F)c2)CCN1C1CC2(CCN(c3ccc(C(=O)NS(=O)(=O)c4ccc(NCC5CCC(C)(O)CC5)c([N+](=O)[O-])c4)c(N4c5cc6cc[nH]c6nc5O[C@H]5COCC[C@@H]54)c3)CC2)C1 (stereo partly drawn) [Example 154, 4-{2-[(2R)-4-[(3,4-difluorophenyl)methyl]-2-(2-methylphenyl)piperazin-1-yl]-7-azaspiro[3.5]nonan-7-yl}-2-[(3R,8S)-2,5-dioxa-9,15,17-triazatetracyclo[8.7.0.0^{3,8}.0^{12,16}]heptadeca-1(10),11,13,16-tetraen-9-yl]-N-[3-nitro-4-({[(1r,4r)-4-hydroxy-4-methylcyclohexyl]methyl}amino)benzenesulfonyl]benzamide] | 27.6 | 
12 | CC(C)Oc1ccccc1[C@H]1CN(Cc2ccc(N3CCOCC3)cn2)CCN1C1CC2(CCN(c3ccc(C(=O)NS(=O)(=O)c4ccc(NCC5CCC(C)(O)CC5)c([N+](=O)[O-])c4)c(N4c5cc6cc[nH]c6nc5O[C@H]5COCC[C@@H]54)c3)CC2)C1 (stereo partly drawn) [Example 128, N-((4-((((1r,4r)-4-hydroxy-4-methylcyclohexyl)methyl)amino)-3-nitrophenyl)sulfonyl)-4-(2-((S)-2-(2-isopropoxyphenyl)-4-((5-morpholinopyridin-2-yl)methyl)piperazin-1-yl)-7-azaspiro[3.5]nonan-7-yl)-2-((5aS,9aR)-6,7,9,9a-tetrahydro-1H-pyrano[3,4-b]pyrrolo[3′,2′:5,6]pyrido[3,2-e][1,4]oxazin-5(5aH)-yl)benzamide] | 22.2 | 
13 | COc1ccc(CN2CCN(C3CC4(CCN(c5ccc(C(=O)NS(=O)(=O)c6ccc(NC[C@H]7CC[C@](C)(O)CC7)c([N+](=O)[O-])c6)c(N6c7cc8cc[nH]c8nc7O[C@H]7COCC[C@@H]76)c5)CC4)C3)[C@@H](c3ccccc3OC(C)C)C2)cc1 [Example 99, 2-[(3R,8S)-2,5-dioxa-9,15,17-triazatetracyclo[8.7.0.0^{3,8}.0^{12,16}]heptadeca-1(10),11,13,16-tetraen-9-yl]-4-{2-[(2S)-2-(2-isopropoxyphenyl)-4-[(4-methoxyphenyl)methyl]piperazin-1-yl]-7-azaspiro[3.5]nonan-7-yl}-N-[3-nitro-4-({[(1r,4r)-4-hydroxy-4-methylcyclohexyl]methyl}amino)benzenesulfonyl]benzamide] | 38.5 | 
